# Test results published in US20080090847A1, “HETEROCYCLIC COMPOUNDS AND USES THEREOF AS D-ALANYL-D-ALANINE LIGASE INHIBITORS” (PLIVA D.D., priority 2001, published 2008).
# Like-named read-outs stand apart in the source and are kept apart here.
# Tests used:
# Type in all cases: biochemical
# [1] = molecular target: E. coli ligase (D-Ala-D-Ala ligase) (Escherichia coli, UniProt P07862); assay: D-Ala-D-Ala ligase Ki determination (PK/LDH coupled assay), E. coli ligase
# Source text: (§1) Inhibition of D-Ala-D-Ala ligase can be assayed for using the pyruvate kinase/lactate dehydrogenase (PK/LDH) assay described in Example 2, and as described in the literature (e.g., in Sarthy et al., Anal. Biochem., 254:288-290, 1997). In the bacterial cell wall synthesis process, the ligase catalyzes the conversion of adenosine triphosphate (ATP) to adenosine diphosphate (ADP) concurrent with the ligation of two D-alanine residues to form D-alanyl-D-alanine. PK then regenerates ATP from the ADP thus created simultaneously with the conversion of phosphopyruvate to pyruvate. LDH catalyzes the reduction of pyruvate to lactate by converting NADH to NAD^+. By monitoring the production rate of NAD^+ (e.g., using UV/Vis spectroscopy), D-Ala-D-Ala ligase activity can be ascertained.
# (§2) The protein sequence for the enzyme D-ala-D-ala ligase has been determined in a variety of different bacterial species using standard techniques in biochemistry (see Table 5). The protein sequence from any species can be overexpressed in an appropriate host organism such as E. coli using standard molecular biology techniques. The ligase enzyme can be harvested, purified, and used in the above described assay for the determination of inhibitory activity.
# (§3) The synthetic analogs of Example 1 were dissolved in dimethylsulfoxide (DMSO) at a concentration of 100 mM on the day of screening, using a vortex mixer and sonication if necessary for dissolution. The solutions were kept at room temperature until screening was completed.
# (§4) A 10 mM NADH (Sigma) stock solution was prepared freshly on the day of screening by dissolving 32 μmol NADH in 3.2 ml double-distilled water. The NADH solution was kept on ice. Stock solutions containing 50 mM phosphoenolpyruvate (PEP; Sigma), 500 μM HERMES, 30 mM adenosine triphosphate (ATP; Sigma), 200 mM D-alanine (Sigma), and 4× core buffer (i.e., 400 mM Hepes, 40 mM magnesium chloride, and 40 mM potassium chloride), were also stored on ice. A stock solution of pyruvate kinase/lactate dehydrogenase (PK/LDH) was also obtained from Sigma.
# (§5) Table of Final concentrations are dependent on the type of screening:
# (§6) For each set of test compounds, two 96-well plates were used: an inhibitor plate and an enzyme plate. The test compounds correspond to rows A-G of the plates. Adenosine (Sigma) dissolved in DMSO, used as a control, corresponds to row H of each plate.
# (§7) The enzyme solution was allowed to equilibrate to 25° C.
# (§8) Dilutions were prepared in the inhibitor plate as follows: 50 μl DMSO was added to each well of columns 1-11, rows A-G, of the inhibitor plate. 50 μl DMSO were added to each well of columns 1-11, row H. 100 μl of the 100 mM test solutions were added to column 12, rows A-G (i.e., the first compound in row A, the second compound in row B, and so on). 100 μl of a 100 mM Adenosine solution was added to column 12, row H.
# (§9) 50 μl of the test solution was transferred from column 12 in each row to column 11 of the a same row, mixing the solution with the DMSO. 50 μl of solution was then transferred from column 11 in each row to column 10 in the same row, 50 μl from column 10 was transferred to column 9, and so on, down to column 2. No solution was transferred to column 1. Multichannel pipettors were used in making the serial dilution.
# (§10) 120 μl of the enzyme solution was added to each well of the enzyme plate.
# (§11) The substrate solutions were brought to 25° C.
# (§12) The analogs and enzymes were then incubated at 25° C. Since the reactions were initiated in columns, the analog addition is also in columns. At t=0 minutes, 5 μl analog was transferred from each well of columns 1-4 of the inhibitor plate to the corresponding well of the enzyme plate. At t=4 minutes, 5 μl analog was transferred from each well of columns 5-8 of the inhibitor plate to the corresponding well of the enzyme plate. At t=8 minutes, 5 μl analog was transferred from each well of columns 9-12 of the inhibitor plate to the corresponding well of the enzyme plate. The inhibitor plate was then frozen. […]
# [2] = molecular target: T1, Strep ligase (D-Ala-D-Ala ligase) (Streptococcus pneumoniae serotype 4, UniProt P0CB57); assay: D-Ala-D-Ala ligase Ki determination (PK/LDH coupled assay), Strep ligase
# T1 sequence (P0CB57 1-347): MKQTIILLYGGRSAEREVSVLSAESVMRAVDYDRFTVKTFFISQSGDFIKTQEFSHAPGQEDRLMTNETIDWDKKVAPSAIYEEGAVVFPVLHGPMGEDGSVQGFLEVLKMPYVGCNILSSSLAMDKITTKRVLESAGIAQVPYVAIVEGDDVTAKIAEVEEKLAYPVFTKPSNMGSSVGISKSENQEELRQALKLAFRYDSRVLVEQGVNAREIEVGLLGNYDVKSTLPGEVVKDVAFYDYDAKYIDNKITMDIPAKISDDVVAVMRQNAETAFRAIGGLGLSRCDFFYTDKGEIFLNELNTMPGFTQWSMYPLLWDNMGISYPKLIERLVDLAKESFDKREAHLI
# Source text: as §1, §2, §3, §4, §5, §6, §7, §8, §9, §10, §11, §12
# [3] = molecular target: Staph ligase (D-Ala-D-Ala ligase) (Staphylococcus aureus, UniProt Q5HEB7); assay: D-Ala-D-Ala ligase Ki determination (PK/LDH coupled assay), Staph ligase
# Sequence of Staph ligase (D-Ala-D-Ala ligase) (Q5HEB7 whole entry): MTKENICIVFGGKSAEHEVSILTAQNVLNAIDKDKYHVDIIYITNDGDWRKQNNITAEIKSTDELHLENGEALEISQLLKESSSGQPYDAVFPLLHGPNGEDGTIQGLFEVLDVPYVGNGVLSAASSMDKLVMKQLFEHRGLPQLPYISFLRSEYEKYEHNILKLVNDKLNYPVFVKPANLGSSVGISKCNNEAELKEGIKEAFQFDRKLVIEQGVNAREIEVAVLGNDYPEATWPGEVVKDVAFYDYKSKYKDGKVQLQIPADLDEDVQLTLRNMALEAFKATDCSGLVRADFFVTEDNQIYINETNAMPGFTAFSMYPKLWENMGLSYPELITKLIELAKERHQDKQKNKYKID
# Source text: as §1, §2, §3, §4, §5, §6, §7, §8, §9, §10, §11, §12
# [4] = molecular target: H. Influenzae ligase (D-Ala-D-Ala ligase) (Haemophilus influenzae, UniProt P44405); assay: D-Ala-D-Ala ligase Ki determination (PK/LDH coupled assay), H. influenzae ligase
# Sequence of H. Influenzae ligase (D-Ala-D-Ala ligase) (P44405 whole entry): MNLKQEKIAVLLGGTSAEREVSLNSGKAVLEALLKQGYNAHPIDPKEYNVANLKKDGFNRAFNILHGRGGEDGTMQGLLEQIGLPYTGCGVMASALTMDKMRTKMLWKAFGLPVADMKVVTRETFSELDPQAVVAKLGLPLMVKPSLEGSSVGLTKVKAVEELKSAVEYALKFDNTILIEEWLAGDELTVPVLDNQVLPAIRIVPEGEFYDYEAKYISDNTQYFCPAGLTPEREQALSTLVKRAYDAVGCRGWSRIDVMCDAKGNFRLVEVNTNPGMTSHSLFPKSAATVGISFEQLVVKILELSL
# Source text: as §1, §2, §3, §4, §5, §6, §7, §8, §9, §10, §11, §12
# [5] = Table 1, read-out: Ki (E. coli ligase)/μM
# [6] = Table 3, Ki/ATP, avg, read-out: Strep ligase Ki/ATP (uM) avg
# [7] = E. coli ligase Ki/ATP (uM) avg, Table 3, Ki/ATP, avg
# [8] = Table 3, Ki/ATP, avg, read-out: Staph ligase Ki/ATP (uM) avg
# [9] = Table 3, Ki/ATP, avg, read-out: H. Influenzae ligase Ki/ATP (uM) avg
# [10] = Table 4, Ki/ATP, avg, read-out: Strep ligase Ki/ATP (uM) avg
# [11] = E. coli ligase Ki/ATP (uM) avg, Table 4, Ki/ATP, avg
# [12] = Table 4, Ki/ATP, avg, read-out: Staph ligase Ki/ATP (uM) avg
# [13] = Table 4, Ki/ATP, avg, read-out: H. Influenzae ligase Ki/ATP (uM) avg
# [14] = Table 5, Ki/ATP, avg, read-out: Strep ligase Ki/ATP (uM) avg
# [15] = E. coli ligase Ki/ATP (uM) avg, Table 5, Ki/ATP, avg
# [16] = Table 5, Ki/ATP, avg, read-out: Staph ligase Ki/ATP (uM) avg
# [17] = Table 5, Ki/ATP, avg, read-out: H. Influenzae ligase Ki/ATP (uM) avg
# [18] = Table 2, read-out: Staph ligase
structure (smiles),measurement,setting,value
CN(Cc1cnc2ccccc2c1)c1ncc2c(N)nc(N)nc2n1,Ki,[1]; [5],1 µM
CC(c1cccc2ccccc12)N(CC(O)C(=O)O)c1ncc2c(N)nc(N)nc2n1 (centres unmarked),Ki,[1]; [5],0.5 µM
CCOc1ccc2ccccc2c1CN(CC(=O)O)c1ncc2c(N)nc(N)nc2n1,Ki,[1]; [5],8.7 µM
CCOc1ccc2ccccc2c1CN(CCC(=O)NCCN)c1ncc2c(N)nc(N)nc2n1,S. pneumoniae ligase activity (in words),[2],single digit micromolar
same,Ki,[2]; [6],1.9 µM
same,Ki for E. coli ligase (in words),[1],less than one micromolar
same,Ki,[1]; [7],0.7 µM
same,S. aureus ligase activity (in words),[3],single digit micromolar
same,Ki,[3]; [8],4.7 µM
same,Ki for H. influenzae ligase (in words),[4],less than one micromolar
same,Ki,[4]; [9],1 µM
CCOc1ccc2ccccc2c1CN(CCC(=O)NCc1ccccn1)c1ncc2c(N)nc(N)nc2n1,Ki,[2]; [6],3.1 µM
same,Ki,[1]; [7],9.6 µM
same,Ki,[3]; [8],9.5 µM
same,Ki,[4]; [9],0.267 µM
CCOc1ccc2ccccc2c1CN(CCC(=O)N1CCOCC1)c1ncc2c(N)nc(N)nc2n1,Ki,[2]; [6],4.1 µM
same,Ki,[1]; [7],1.9 µM
same,Ki,[3]; [8],3.8 µM
same,Ki,[4]; [9],1.3 µM
CCOc1ccc2ccccc2c1CN(CCC(=O)O)c1ncc2c(N)nc(N)nc2n1,Ki,[2]; [10],2.1 µM
same,Ki,[1]; [11],5.3 µM
same,Ki,[3]; [12],6.7 µM
same,Ki,[4]; [13],3.7 µM
C[C@@H](c1cccc2ccccc12)N(CCC(=O)O)c1ncc2c(N)nc(N)nc2n1,Ki,[2]; [10],14.6 µM
same,Ki,[1]; [11],4.2 µM
same,Ki,[3]; [12],10 µM
same,Ki,[4]; [13],5.7 µM
C[C@@H](c1cccc2ccccc12)N(CC(O)C(=O)O)c1ncc2c(N)nc(N)nc2n1 (some centres unmarked),Ki,[2]; [10],4.3 µM
same,Ki,[1]; [11],1.4 µM
same,Ki,[3]; [12],4.3 µM
same,Ki,[4]; [13],3.5 µM
CCOc1ccc2ccccc2c1CN(CC(O)C(=O)O)c1ncc2c(N)nc(N)nc2n1 (centres unmarked),Ki,[2]; read-out: activity against Strep (ligase),2.6 µM
same,Ki,[1]; E. coli ligase potency,0.143 µM
same,Ki,[3]; read-out: activity against Staph (ligase),4.1 µM
same,Ki,[4]; read-out: activity against H. influenzae (ligase),0.566 µM
CCCN(c1ncc2c(N)nc(N)nc2n1)C(C)c1cccc2ccccc12 (centres unmarked),Ki,[2]; [14],439 µM
same,Ki,[1]; [15],2 µM
same,Ki,[3]; [16],58 µM
same,Ki,[4]; [17],2.7 µM
CC(c1cccc2ccccc12)N(CCCN)c1ncc2c(N)nc(N)nc2n1 (centres unmarked),Ki,[2]; [14],81.2 µM
same,Ki,[1]; [15],0.457 µM
same,Ki,[3]; [16],46 µM
same,Ki,[4]; [17],5.5 µM
C[C@@H](c1cccc2ccccc12)N(C[C@@H](O)C(=O)O)c1ncc2c(N)nc(N)nc2n1 (racemic),Ki,[1]; [11],0.611 µM
same,Ki,[3]; [12],7.8 µM
C[C@H](c1ccc(F)c2ccccc12)N(C)c1ncc2c(N)nc(N)nc2n1 [CH3|CH3|R|F],Ki,"[1]; E. coli ligase (μM), Table 2",0.104 µM
same,Ki,[3]; [18],27 µM
CC(c1cccc2ccccc12)N(CCCCN)c1ncc2c(N)nc(N)nc2n1 (centres unmarked) [drawing 41],Ki,[1]; [5],0.13 µM
CCN(c1ncc2c(N)nc(N)nc2n1)C(C)c1ccc(C)c2ccccc12 (centres unmarked) [—CH2CH3|CH3|R/S|CH3],Ki,"[1]; E. coli ligase (μM), Table 2",0.21 µM
same,Ki,[3]; [18],38.5 µM
CCN(c1ncc2c(N)nc(N)nc2n1)[C@H](C)c1ccc(C)c2ccccc12 [—CH2CH3|CH3|R|CH3],Ki,"[1]; E. coli ligase (μM), Table 2",0.102 µM
same,Ki,[3]; [18],71 µM
Cc1ccc([C@@H](C)N(CC2CC2)c2ncc3c(N)nc(N)nc3n2)c2ccccc12 [—CH2CH(CH2)2|CH3|R|CH3],Ki,"[1]; E. coli ligase (μM), Table 2",0.174 µM
same,Ki,[3]; [18],62 µM
"CCC(c1cccc2ccccc12)N(C)c1ncc2c(N)nc(N)nc2n1 (centres unmarked) [—CH3|C2H5|R/S|H, N7-Methyl-N-7-(1-naphthalen-1-yl-propyl)-pyrimido[4,5-d]pyrimidine-2,4,7-triamine]",Ki,"[1]; E. coli ligase (μM), Table 2",0.452 µM
same,Ki,[3]; [18],4.6 µM
"Cc1ccc(C(C)N(C)c2ncc3c(N)nc(N)nc3n2)c2ccccc12 (centres unmarked) [—CH3|CH3|R/S|CH3, N7-Methyl-N7-[1-(4-methyl-naphthalen-1-yl)-ethyl]-pyrimido[4,5-d]pyrimidine-2,4,7-triamine]",Ki,"[1]; E. coli ligase (μM), Table 2",0.277 µM
same,Ki,[3]; [18],12.3 µM
CC(c1ccc(Cl)c2ccccc12)N(C)c1ncc2c(N)nc(N)nc2n1 (centres unmarked) [—CH3|CH3|R/S|Cl],Ki,"[1]; E. coli ligase (μM), Table 2",0.201 µM
same,Ki,[3]; [18],4.9 µM
CC(c1cccc2ccccc12)N(C)c1ncc2c(N)nc(N)nc2n1 (centres unmarked) [—CH3|CH3|R/S|H],Ki,"[1]; E. coli ligase (μM), Table 2",0.718 µM
same,Ki,[3]; [18],9.28 µM
